According to patent US12708113B2, “Herbicidal compositions and methods of use thereof” (Valent U.S.A. LLC, priority 2018, dated 2026):

Assay: Metribuzin solubility in salt solutions
Type: physicochemical
Details: ammonium sulfate, ammonium acetate and potassium citrate tribasic monohydrate solutions; FIG. 1
Description: Metribuzin is partially soluble in water. Because of its partial solubility metribuzin grows crystals in aqueous solutions. It is a discovery of the present invention that, if water solubility of metribuzin is lowered, then crystal growth is inhibited or reduced. To determine if salts could lower the water solubility of metribuzin, metribuzin was added to the saturation point to several concentrations of ammonium sulfate, ammonium acetate and potassium citrate tribasic monohydrate solutions. Results can be seen in FIG. 1.

CSc1nnc(C(C)(C)C)c(=O)n1N [metribuzin, Metribuzin]
water solubility of metribuzin versus salt concentration: negatively correlated
